Laboratory results: US11780851B2, “LRRK2 inhibitors” (H. Lundbeck A/S, priority 2021, dated 2023)
Read-outs that look alike come from different tables or passages of the source.

Tests used:
LRRK2 G2019S = target: T1, LRRK2 G2019S (Homo sapiens, UniProt Q5S007, G2019S); experiment: LRRK2 G2019S kinase activity assay (LanthaScreen TR-FRET); assay type: biochemical; details: 250 pM LRRK2 G2019S, 1.3 mM ATP, 3 h at 30° C.; n≥2 tests
T1 construct: purchased Invitrogen (Life Technologies Corporation)
Method: (§1) LRRK2 kinase activity was measured using a LanthaScreen kinase activity assay available from Invitrogen (Life Technologies Corporation). The assay is a homogeneous time resolved-fluorescence resonance energy transfer (TR-FRET) assay that measures phosphorylation of a fluorescein-labelled peptide substrate Fluorescein-ERM LRRKtide obtainable from Life Technologies Corporation as a result of LRRK2 kinase activity. The phosphorylated peptide is recognized by a terbium-labelled phospho-specific anti-LRRKtide antibody (pLRRKtide antibody), obtainable from Life Technologies Corporation and, subsequently, the phosphorylated LRRKtide can be quantified by the extent of TR-FRET between the terbium donor and fluorescein acceptor. The LRRK2 kinase was obtained from Invitrogen (Life Technologies Corporation) and comprises residue 970 to 2527 of the full length human wild-type LRRK2 kinase, or a similar sequence with the G2019S mutation. As discussed above, this mutation increases the kinase activity relative to the wild type. The kinase reactions were performed in a 20 μL volume in 384-well plates. […] The mixture was further incubated for 30 minutes at RT. […] The measurement was repeated 30 times for fluorescein and 30 times for terbium emission with a 1000 μs time window between repeats. TR-FRET measurements were performed on a Biotek Synergy plate. The TR-FRET signal was calculated as the emission-ratio at 520 nm over 495 nm. The TR-FRET ratio readout for test compounds was normalized to 0% inhibition corresponding to TR-FRET ratio measured in control wells with no inhibition of the kinase activity and 100% inhibition corresponding to TR-FRET ratio measured in control wells with inhibitor. […] C is the IC50 value and D is the Hill slope coefficient. IC50 estimates were obtained from independent experiment and the logarithmic average was calculated.

LRRK2 WT = target: T2, LRRK2 WT (Homo sapiens, UniProt Q5S007); experiment: LRRK2 wild-type kinase activity assay (LanthaScreen TR-FRET); assay type: biochemical; details: 1 nM LRRK2 WT, 1.3 mM ATP, 3.5 h at 30° C.; n≥2 tests
T2 construct: comprises residue 970 to 2527 of the full length human wild-type LRRK2 kinase; purchased Invitrogen (Life Technologies Corporation)
Method: as §1

[1] = Rat B/P (brain disposition); assay type: in vivo, male Sprague-Dawley rats; details: male, Sprague-Dawley; for concentration at 1 h / Kp at 1 h / Kp uu at 1 h: time point 1.0 h
Method: Brain disposition was evaluated for each compound in male Sprague-Dawley rats (n=3, standard body weight). […] Isolated plasma and brain homogenates were extracted by standard protein precipitation in acetonitrile, containing internal standard, followed by LC-MS/MS analysis using an optimized analytical method. Concentrations of test compound in plasma and brain were quantified against matrix matched calibration standards. The total plasma and brain concentration data are presented in Table 7 alongside the calculated brain Kp (total brain concentration:total plasma concentration ratio).

[2] = Free fraction in plasma (equilibrium dialysis); assay type: in vitro ADME, male Sprague-Dawley rat; details: rat plasma, 1 μM, 5 h at 37° C.
Method: The free fractions in male Sprague-Dawley rat or female Gottingen minipig plasma (fuplasma) and rat brain homogenate (fubrain) were determined by equilibrium dialysis using 96-well HTD-dialysis plates with dialysis membranes (molecular weight cut off 12-14 KDa). One side of the HTD-dialysis plate was loaded with matrix (plasma or brain homogenate) and the other side with buffer (100 mM sodium phosphate buffer, pH 7.4). Test compounds were dissolved in DMSO then spiked (5 μL of 0.2 mM) into blank (995 μL) plasma or diluted brain homogenate (1:4 ratio in phosphate buffer) giving a final nominal concentration 1 μM (≤0.5% DMSO). The matrices were loaded into respective chambers and equilibrated against phosphate buffer for 5 h at 37° C. (in a humidified air incubator with 5% CO2 with shaking). Samples from both chambers (buffer and plasma or brain homogenate) were aliquoted to fresh 96-well polypropylene plates then matrix matched using an equal volume of opposite blank matrix before extraction with cold solvent (3 volumes acetonitrile) containing an appropriate bioanalytical internal standard. After centrifugation (20 min, 3200 g, 4° C.) the supernatants were diluted with appropriate volumes of water and compound concentrations were quantified by LC/MS-MS against matrix matched calibration standards. The fuplasma and fubrain were calculated as a percent free according to equation 4 below.
Where [F] is the analyte concentration on the buffer (receiver) side of the membrane; [T] is the analyte concentration on the plasma or brain (donor) side of the membrane; [TO] is the analyte concentration in the plasma or brain sample at time zero; D is matrix dilution factor which is determined as 4 for brain matrix and 1 for plasma matrix in these assays.

[3] = brain, oral gavage 10 mg/kg, mean ± stdev, n = 3, read-out: Total brain concentration
[4] = brain/plasma, oral gavage 10 mg/kg, mean ± stdev, n = 3
[5] = brain/plasma, po, 10 mg/kg, oral gavage 10 mg/kg, fubrain from brain homogenate
[6] = plasma, oral gavage 10 mg/kg, mean ± stdev, n = 3, read-out: Total plasma concentration

T1 sequence (Q5S007 970-2527 G2019S): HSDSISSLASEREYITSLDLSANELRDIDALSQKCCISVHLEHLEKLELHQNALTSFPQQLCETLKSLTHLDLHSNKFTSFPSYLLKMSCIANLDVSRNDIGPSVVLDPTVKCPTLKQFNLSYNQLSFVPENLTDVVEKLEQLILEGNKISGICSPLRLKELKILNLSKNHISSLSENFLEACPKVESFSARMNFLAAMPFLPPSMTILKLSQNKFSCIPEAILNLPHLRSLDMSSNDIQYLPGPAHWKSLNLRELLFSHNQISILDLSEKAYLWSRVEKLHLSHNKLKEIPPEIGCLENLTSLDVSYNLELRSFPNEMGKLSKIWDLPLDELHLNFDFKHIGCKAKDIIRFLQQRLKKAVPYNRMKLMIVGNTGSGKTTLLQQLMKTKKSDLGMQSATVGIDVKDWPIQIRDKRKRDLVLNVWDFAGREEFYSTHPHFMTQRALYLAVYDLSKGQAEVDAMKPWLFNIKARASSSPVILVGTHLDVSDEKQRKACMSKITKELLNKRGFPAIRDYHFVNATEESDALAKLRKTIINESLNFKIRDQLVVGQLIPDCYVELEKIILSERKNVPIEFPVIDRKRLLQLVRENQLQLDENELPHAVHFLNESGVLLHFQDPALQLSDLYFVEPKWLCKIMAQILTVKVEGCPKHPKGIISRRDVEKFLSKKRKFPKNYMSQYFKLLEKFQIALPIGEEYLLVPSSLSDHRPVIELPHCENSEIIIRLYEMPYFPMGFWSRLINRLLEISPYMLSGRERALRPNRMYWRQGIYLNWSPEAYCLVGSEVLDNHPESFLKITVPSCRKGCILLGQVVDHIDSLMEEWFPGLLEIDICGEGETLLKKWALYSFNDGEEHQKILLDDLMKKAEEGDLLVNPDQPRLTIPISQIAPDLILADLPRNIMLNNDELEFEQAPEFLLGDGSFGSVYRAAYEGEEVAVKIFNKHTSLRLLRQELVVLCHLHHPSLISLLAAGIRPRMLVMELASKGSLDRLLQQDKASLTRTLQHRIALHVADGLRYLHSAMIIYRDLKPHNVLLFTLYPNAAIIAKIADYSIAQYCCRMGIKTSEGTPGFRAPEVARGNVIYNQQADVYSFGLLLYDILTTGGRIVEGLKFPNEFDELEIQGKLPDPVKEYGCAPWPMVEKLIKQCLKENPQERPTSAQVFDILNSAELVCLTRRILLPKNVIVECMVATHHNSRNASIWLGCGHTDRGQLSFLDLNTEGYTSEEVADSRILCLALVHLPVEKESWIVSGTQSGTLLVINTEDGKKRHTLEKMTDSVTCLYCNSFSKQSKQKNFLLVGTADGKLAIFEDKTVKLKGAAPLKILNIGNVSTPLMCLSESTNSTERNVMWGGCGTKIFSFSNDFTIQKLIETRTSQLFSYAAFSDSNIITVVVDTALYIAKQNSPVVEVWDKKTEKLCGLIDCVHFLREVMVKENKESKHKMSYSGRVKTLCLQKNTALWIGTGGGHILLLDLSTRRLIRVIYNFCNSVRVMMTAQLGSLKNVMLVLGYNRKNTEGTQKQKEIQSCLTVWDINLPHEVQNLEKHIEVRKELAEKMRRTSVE
T2 sequence (Q5S007 970-2527): as the sequence (Q5S007 970-2527 G2019S) above, with S1050G counted along it

Row | Compound | IC50 (LRRK2 G2019S) [nM] | IC50 (LRRK2 WT) [nM] | fuplasma (% free) [2] [% free] | concentration at 1 h [1, 3] [ng/g] | Kp at 1 h [1, 4] | Kp uu at 1 h [1, 5] | concentration at 1 h [1, 6] [ng/mL] | also measured
1 | Cc1c2c(nn1[C@H]1[C@@H]3COC[C@@H]31)OCCCn1nc(Cl)c3cnc(nc31)N2 [Example 38, 2-((1R,5S,6r)-3-Oxabicyclo[3.1.0]hexan-6-yl)-8-chloro-3-methyl-2,4,12,13-tetrahydro-11H-5,7-(azenometheno)dipyrazolo[3,4-b:5′,1′-g][1]oxa[4,6,8]triazacycloundecine] | 11 | 28 | 30.0 |  |  |  |  | concentration at 0.5 h ([1]; brain, oral gavage 10 mg/kg, time point 0.5 h, mean ± stdev, n = 3, read-out: Total brain concentration): 562 ± 83 ng/g; Kp uu at 0.5 h ([1]; brain/plasma, oral gavage 10 mg/kg, time point 0.5 h, fubrain from brain homogenate): 0.48 ± 0.03; Kp at 0.5 h ([1]; brain/plasma, oral gavage 10 mg/kg, time point 0.5 h, mean ± stdev, n = 3): 1.58 ± 0.1; concentration at 0.5 h ([1]; plasma, oral gavage 10 mg/kg, time point 0.5 h, mean ± stdev, n = 3, read-out: Total plasma concentration): 355 ± 31 ng/mL
2 | Cc1c2c(nn1[C@H]1CC[C@H](F)CC1)OCCCn1nc(Cl)c3cnc(nc31)N2 [Example 25, 8-Chloro-2-((1r,4r)-4-fluorocyclohexyl)-3-methyl-2,4,12,13-tetrahydro-11H-5,7-(azenometheno)dipyrazolo[3,4-b:5′,1′-g][1]oxa[4,6,8]triazacycloundecine] | 5.1 | 16 | 12.0 | 110 ± 18 | 2.87 ± 0.04 | 0.65 ± 0.01 | 38 ± 6 | 
3 | Cc1c2c(nn1[C@@H]1CCOC3(CC3)C1)OCCCn1nc(Cl)c3cnc(nc31)N2 (single isomer, unassigned) [Example 53, (+)-(R) or (S)-8-Chloro-3-methyl-2-(4-oxaspiro[2.5]octan-7-yl)-2,4,12,13-tetrahydro-11H-5,7-(azenometheno)dipyrazolo[3,4-b:5′,1′-g][1]oxa[4,6,8]triazacycloundecine] | 1.3 | 3.2 | 17.1 |  |  |  |  | concentration at 1 h ([1]; brain, oral gavage 5 mg/kg, mean ± stdev, n = 3, read-out: Total brain concentration): 363 ± 138 ng/g; Kp uu at 1 h ([1]; brain/plasma, oral gavage 5 mg/kg, fubrain from brain homogenate): 0.65 ± 0.06; Kp at 1 h ([1]; brain/plasma, oral gavage 5 mg/kg, mean ± stdev, n = 3): 1.77 ± 0.16; concentration at 1 h ([1]; plasma, oral gavage 5 mg/kg, mean ± stdev, n = 3, read-out: Total plasma concentration): 203 ± 67 ng/mL
4 | Cc1c2c(nn1C1CCOCC1)OCCCn1nc(Br)c3cnc(nc31)N2 [Example 6, 8-Bromo-3-methyl-2-(tetrahydro-2H-pyran-4-yl)-2,4,12,13-tetrahydro-11H-5,7-(azenometheno)dipyrazolo[3,4-b:5′,1′-g][1]oxa[4,6,8]triazacycloundecine] |  |  | 34.3 | 1460 ± 244 | 1.97 ± 0.27 | 0.44 ± 0.06 | 738 ± 24 | 
5 | Cc1c2c(nn1C1(C)COC1)OCCCn1nc(Cl)c3cnc(nc31)N2 [Example 14, 8-Chloro-3-methyl-2-(3-methyloxetan-3-yl)-2,4,12,13-tetrahydro-11H-5,7-(azenometheno)dipyrazolo[3,4-b:5′,1′-g][1]oxa[4,6,8]triazacycloundecine] | 4 | 16 | 38.0 | 421 ± 168 | 1.52 ± 0.37 | 0.3 ± 0.07 | 280 ± 102 | 
6 | Cc1c2c(nn1C1CCOCC1)OCCCn1nc(C(F)(F)F)c3cnc(nc31)N2 [Example 5, 3-Methyl-2-(tetrahydro-2H-pyran-4-yl)-8-(trifluoromethyl)-2,4,12,13-tetrahydro-11H-5,7-(azenometheno)dipyrazolo[3,4-b:5′,1′-g][1]oxa[4,6,8]triazacycloundecine] | 7.4 | 23 | 32.2 | 744 ± 281 | 2.19 ± 0.25 | 0.29 ± 0.03 | 336 ± 96 | 
7 | [2H]C1([2H])CCn2nc(Cl)c3cnc(nc32)Nc2c(nn(C3CCOCC3)c2C)O1 [Example 46, 8-Chloro-3-methyl-2-(tetrahydro-2H-pyran-4-yl)-2,4,12,13-tetrahydro-11H-5,7-(azenometheno)dipyrazolo[3,4-b:5′,1′-g][1]oxa[4,6,8]triazacycloundecine-13,13-d2] | 3.1 | 12 |  |  |  |  |  | 
8 | Cc1c2c(nn1C1CC3(COC3)C1)OCCCn1nc(Cl)c3cnc(nc31)N2 [Example 34, 8-Chloro-3-methyl-2-(2-oxaspiro[3.3]heptan-6-yl)-2,4,12,13-tetrahydro-11H-5,7-(azenometheno)dipyrazolo[3,4-b:5′,1′-g][1]oxa[4,6,8]triazacycloundecine] | 5.7 | 18 |  |  |  |  |  | 
9 | Cc1c2c(nn1C1CCC(F)(F)CC1)OCCCn1nc(Cl)c3cnc(nc31)N2 [Example 26, 8-Chloro-2-(4,4-difluorocyclohexyl)-3-methyl-2,4,12,13-tetrahydro-11H-5,7-(azenometheno)dipyrazolo[3,4-b:5′,1′-g][1]oxa[4,6,8]triazacycloundecine] | 5.9 | 21 |  |  |  |  |  | 
10 | [2H]C([2H])([2H])c1c2c(nn1[C@H]1CCOC3(CC3)C1)OCCCn1nc(Cl)c3cnc(nc31)N2 (single isomer, unassigned) [Example 64, (−)-(R) or (S)-8-Chloro-3-(methyl-d3)-2-(4-oxaspiro[2.5]octan-7-yl)-2,4,12,13-tetrahydro-11H-5,7-(azenometheno)dipyrazolo[3,4-b:5′,1′-g][1]oxa[4,6,8]triazacycloundecine] | 5 | 11 |  |  |  |  |  | 
11 | Cc1c2c(nn1CC13CC(CO1)C3)OCCCn1nc(Cl)c3cnc(nc31)N2 [Example 11, 2-((2-Oxabicyclo[2.1.1]hexan-1-yl)methyl)-8-chloro-3-methyl-2,4,12,13-tetrahydro-11H-5,7-(azenometheno)dipyrazolo[3,4-b:5′,1′-g][1]oxa[4,6,8]triazacycloundecine] | 4.6 | 14 |  |  |  |  |  | 
12 | Cc1c2c(nn1[C@H]1CCCCOC1)OCCCn1nc(Cl)c3cnc(nc31)N2 (single isomer, unassigned) [Example 28, (+)-(R) or (S)-8-Chloro-3-methyl-2-(oxepan-3-yl)-2,4,12,13-tetrahydro-11H-5,7-(azenometheno)dipyrazolo[3,4-b:5′,1′-g][1]oxa[4,6,8]triazacycloundecine] | 5.3 | 19 |  |  |  |  |  | 
13 | Cc1nn2c3nc(ncc13)Nc1c(nn(C3CCOCC3)c1C)OCCC2 [Example 8, 3,8-Dimethyl-2-(tetrahydro-2H-pyran-4-yl)-2,4,12,13-tetrahydro-11H-5,7-(azenometheno)dipyrazolo[3,4-b:5′,1′-g][1]oxa[4,6,8]triazacycloundecine] | 21 | 93 |  |  |  |  |  | 
